In patent US10961187B2, “Substituted N-acetyl-L-cysteine derivatives and related compounds” (Promentis Pharmaceuticals, Inc., priority 2013, dated 2021):

Key:
Rats [1] = experiment: Prepulse inhibition experiment (MK-801-induced deficit); type: in vivo; settings: MK-801 0.1 mg/kg SC, MK-801 + vehicle control about 16%
Description: Rats were placed on a platform in a sound attenuating chamber (10.875″×14″×19.5″; Hamilton Kinder, CA) that rested on a motion sensing plate. During all sessions, the background noise was held constant at 60 dB. A matching session was conducted to determine the magnitude of the average startle response for each rat. This session consisted of a five minute habituation period followed by 20 trials; 17 trials involved the presentation of a single auditory stimulus (pulse stimulus; 50 dB above the background noise) and three trials in which a pre-pulse stimulus (12 db above background) was presented 100 ms before the pulse auditory stimulus. Rats were then assigned into the various treatment groups so that the magnitude of the startle response was equivalent across all groups. Two days later, a testing session was conducted to assess sensorimotor gating. One hour prior to testing, rats received a prodrug (0-100 mg/kg, P.O.) and 55 minutes later acute MK-801 maleate (0.1 mg/kg, SC). The testing session consisted of a five minute habituation period, after which rats received 58 discrete trials; 26 trials during which the pulse stimulus (50 db above background) was presented alone, eight trials each in which the pulse stimulus was preceded by a prepulse stimulus (5, 10, or 15 db above background) and eight background trials with no pulse (No stimulus; background noise only). The first six pulse alone trials were not included in the average startle stimulus to achieve a relatively stable level of startle reactivity. All startle responses were normalized to vehicle control, and the percent of prepulse inhibition was determined as 100-(average prepulse startle response/average startle stimulus alone)*100.

[2] = system: mixed cortical cell cultures containing glial and neuronal cells; experiment: In vitro thiol experiment: intracellular cysteine levels; type: cell-based, mice; settings: for intracellular cysteine concentration: raw concentration in collected samples
Description: To further resolve by what process the inhibition of ^14C-cystine uptake is occurring intracellular cysteine levels were determined.
Mixed cortical cell cultures containing glial and neuronal cells were prepared from fetal (15-16 day gestation) mice as previously described. (Lobner D, “Comparison of the LDH and MTT assays for quantifying cell death: validity for neuronal apoptosis?,” J. Neurosci. Methods, 96(2): 147-152 (Mar. 15, 2000)). Dissociated cortical cells were plated on 24-well plates coated with poly-D-lysine and laminin in Eagles' Minimal Essential Medium (MEM, Earle's salts, supplied glutamine-free) supplemented with 5% heat-inactivated horse serum, 5% fetal bovine serum, 2 mM glutamine and glucose (total 21 mM). Cultures were maintained in humidified 5% CO2 incubators at 37° C. Mice were handled in accordance with a protocol approved by our institutional animal care committee and in compliance with the Public Health service Policy on Humane Care and Use of Laboratory Animals.
Mixed cortical cell cultures, 14 days in vitro (this allows for a confluent layer of astrocytes to form and the neurons to generate a complex network of axons and dendrites), were washed into bicarbonate buffered salt solution. After 1 hour, 3, 10, 30, 100 μM of Pro-4047 or Pro-4051 was added and the cells were incubated for 30 or 90 minutes, after which the cells were thoroughly washed and the collected in 250 μL of aqueous mobile phase (50 mM citric acid, 10 mM octanesulfonic acid, pH 2.8) was added, after 10 minutes at 37° C. the cells were scraped from the plates and transferred to 1.5 mL tubes for analysis.
Samples were then sonicated with a Fisher Scientific 60 Sonic Dismembrator. One fraction of this homogenate was analyzed with the Pierce BCA (bicinchoninic acid) method to determine protein concentration. The other fraction was filtered using 3 K molecular weight cutoff, polyethersulfone centrifugal protein filters, and analyzed for thiol content using HPLC (ALF-115 column, 150×1.0 mm, 3 μm C18 [Pro-2023 analysis utilized a Phenomenex Kinetex 2.6 μM, C18, 100 A, 150×2.1 mm and Pro-4047 analysis utilized a Phenomenex Kinetex X-B, C18, 100 A, 2.6 μm, 150×4.4 mm]; mobile phase: 50 mM citric acid, 10 mM octanesulfonic acid, 2% acetonitrile, pH 2.8, 50 μL/min flow rate [Pro-2023 analysis utilized a 100 μL/min flow rate and Pro-4047 analysis utilized 1% acetonitrile and 0.4 mL/min flow rate] with electrochemical detection (Decade II, Au working electrode, Flex Cell HyREF, 0.55V, Antec Leyden, Netherlands [Pro-4047 analysis utilized a Magic Diamond working electrode and 1.8V]).
When the intracellular thiol assay was initiated, all data was normalized to protein concentration. […] The data presented herein represents the raw cysteine concentrations in the collected samples. […] Pro-4006 at 10 μM increases intracellular cysteine concentration to 0.07 μM at 30 minutes (approximately 3.5 times that of the control; FIG. 11). […] Pro-4047 at 300 μM increases intracellular cysteine concentration to 0.74 μM at 90 minutes (approximately 4.9 times that of the control; FIG. 13). […] Thus, based on the 3 in vitro experiments it is apparent that Pro-2023, Pro-4006, Pro-4011, Pro-4047, Pro-4051 and Pro-4051a behave as effective cysteine prodrugs.

Rats [3] = experiment: Elevated-plus maze; type: in vivo; settings: for time spent on the open arms: one hour prior to testing, five minute session
Description: Rats were tested in a standard elevated plus maze; testing occurred in a dimly illuminated room using only two lights mounted over the maze. Animals were allowed to habituate to the room for at least one hour prior to treatment. One hour prior to testing, rats received a compound of the present invention (0-30 mg/kg, P.O.). For testing, the rat was placed in the elevated plus maze for five minutes, alternating the starting position between facing an open arm and facing a closed arm. The session was recorded and an observer blind to treatment recorded the number of explorations, entries and time spent in the open arm. Explorations were defined as the rat placing two feet into an open arm without fully entering said arm. Entries were defined as the rat placing all four feet in an open arm. Time of entry in the open arm was recorded from the time the rat placed four feet in the open arm until two of the rats' feet entered the open square.

[4] = 10 mg/kg P.O. one hour prior to testing

| Structure (SMILES) | % prepulse inhibition (Rats [1]; [4]) | intracellular cysteine, times that of the control ([2]; 100 μM compound, 30 minutes) | intracellular cysteine concentration ([2]; 100 μM compound, 30 minutes) [µM] | increase of time spent on the open arm (Rats [3]; 10 or 30 mg/kg PO) | time spent on the open arms (Rats [3]; 10 or 30 mg/kg PO) | % prepulse inhibition (Rats [1]; 3 mg/kg P.O. one hour prior to testing) | intracellular cysteine, times that of the control ([2]; 300 μM compound, 90 minutes) | intracellular cysteine concentration ([2]; 300 μM compound, 90 minutes) [µM] | increase of time on the open arms over control (Rats [3]; 10 mg/kg PO) | time spent on the open arms (Rats [3]; 10 mg/kg PO) | intracellular cysteine, times that of the control ([2]; 100 μM compound, 90 minutes) | intracellular cysteine concentration ([2]; 100 μM compound, 90 minutes) [µM] |
| --- | --- | --- | --- | --- | --- | --- | --- | --- | --- | --- | --- | --- |
| CC(=O)N[C@@H](CSC(=O)c1ccc(C)cc1)C(=O)O [Pro-2023, (2R)-2-Acetylamino-3-(4-methyl-benzoylsulfanyl)-propionic acid] | about 30% | approximately 1.6 times | 0.16 | about 100% | around 27 seconds | – | – | – | – | – | – | – |
| CCOC(=O)[C@H](CSC(=O)C1CSC(=O)N1)NC(C)=O (stereo partly drawn) [Pro-4047, Ethyl (2R)-2-acetamido-3-(2-oxo-1,3-thiazolidine-4-carbonylsulfanyl) propanoate] | – | – | – | – | – | about 23% | approximately 4.9 times | 0.74 | not a significant increase over control | around 22 seconds | – | – |
| CCOC(=O)[C@H](CSC(=O)c1ccc(C)cc1)NC(C)=O [Pro-4051, Ethyl (2R)-2-acetamido-3-(4-methylbenzoylsulfanyl)propanoate] | about 46% | – | – | – | – | – | – | – | ~150% | around 48 seconds | approximately 4 times | 0.36 |
